{"source": "paper PMC6680637", "about": "“In Silico Repositioning of Cannabigerol as a Novel Inhibitor of the Enoyl Acyl Carrier Protein (ACP) Reductase (InhA)” (Molecules, 2019)", "molecular_target": "T1, Enoyl acyl carrier protein (ACP) reductase (InhA) (Mycobacterium tuberculosis, UniProt P9WGR1)", "T1 construct": "wild type InhA", "T1 sequence (P9WGR1 whole entry, looked up)": "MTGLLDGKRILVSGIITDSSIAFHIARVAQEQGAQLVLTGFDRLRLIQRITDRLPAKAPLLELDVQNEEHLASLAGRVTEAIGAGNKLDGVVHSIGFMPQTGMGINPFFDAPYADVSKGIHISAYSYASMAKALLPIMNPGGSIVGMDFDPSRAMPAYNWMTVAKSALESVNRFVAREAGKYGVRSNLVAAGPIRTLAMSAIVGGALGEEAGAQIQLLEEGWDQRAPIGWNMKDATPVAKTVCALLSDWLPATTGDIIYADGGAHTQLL", "assay": "enzyme kinetic assay, NADH oxidation at […] nm with trans-2-dodecenoyl-CoA substrate", "format": "biochemical"}
{"smiles": "CCCCCc1cc(O)c(C/C=C(\\C)CCC=C(C)C)c(O)c1", "note": "[CBG, Cannabigerol]", "values": [{"measurement": "IC50", "value": "5.2 ± 0.1", "unit": "µM"}]}
